Like-named read-outs stand apart in the source and are kept apart here.
Experiments:
[1] = system: transplanted tumor of human renal clear cell adenocarcinoma cell 786-O; experiment: 786-O transplanted tumor in nude mice; details: for Tumor Volume (mm3) (d 1): d1
Description: (§1) 786-O cells in a logarithmic growth phase were taken and subjected to a trypan blue exclusion experiment showing that the cell viability was more than 95%, then the cells were subjected to trypsinization, centrifugation, and supernatant removal. Then cell concentration was adjusted to 1×10^7/ml with matrigel, then each nude mouse was inoculated subcutaneously with 0.2 ml of cells at its right armpit and recorded as the first day of inoculation. When the tumor grows to be greater than or equal to 100 mm^3, the mice were randomly divided into 11 groups with 6 mice in each group: a model group, a cyclophosphamide group, isovaleryl spiramycin I groups with doses of 25, 50 and 100 mg/kg, isovaleryl spiramycin II groups with doses of 25, 50 and 100 mg/kg, and isovaleryl spiramycin III groups with doses of 25, 50 and 100 mg/kg. Each group was continuously administered intragastrically for 30 days with a dose of 20 ml/kg. The mice were sacrificed the next day after drug withdrawal and the indicators were tested. The long diameter and short diameter of the tumor, and the body weight of each mouse were recorded every 3 days from drug administration to nude mouse sacrifice.
(§2) The body weight of the nude mice and the long diameter (a) and short diameter (b) of the transplanted tumor were measured every 3 days, and the tumor volume (v), relative tumor volume (RTV) and relative tumor proliferation rate (T/C) are calculated respectively according to the following formulas, wherein V=a×b^2/2; RTV=V/V0 (V0 is the tumor volume before administration, V is the tumor volume before sacrifice), and T/C (%)=treatment group RTV/model control group RTV×100%.
(§3) Each mouse was weighed and sacrificed. After the tumor was completely stripped off from the body of the mouse, the non-tumor tissues such as blood stains and fat were removed to weigh the tumor and calculate the tumor growth inhibition rate. The average tumor weight of each group of mice is used as an indicator of efficacy. Tumor growth inhibition rate (%)=(1−the average tumor weight of the treatment group/the average tumor weight of the model group)×100%.

[2] = system: transplanted tumor of human non-small cell lung cancer cell H1299
Description: as §1, with “Then” for “786-O cells in a logarithmic growth phase were taken and subjected to a trypan blue exclusion experiment showing that the cell viability was more than 95%, then the cells were subjected to trypsinization, centrifugation, and supernatant removal. Then”, “group:” for “group: a model group, a cyclophosphamide group,”
as §2, §3

[3] = system: transplanted tumor of human glioblastoma cell A172; details: for Tumor Volume (mm3) (d 1): d1
How it was run: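 Nude mice bearing subcutaneous A172 xenografts (cells in matrigel) randomized at ≥100 mm^3, 6 per group; isovaleryl spiramycin I, II or III at 25, 50 or 100 mg/kg given intragastrically for 30 days, temozolomide as comparator. Endpoints: RTV-based T/C (%) and tumor-weight inhibition at sacrifice.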

[4] = 786-O, high dose (100 mg/kg in method) i.g. 30 days
[5] = 786-O, low dose (25 mg/kg in method) i.g. 30 days
[6] = 786-O, medium dose (50 mg/kg in method) i.g. 30 days
[7] = H1299, 25 mg/kg (low dose) i.g. 30 days
[8] = H1299, 50 mg/kg (medium dose) i.g. 30 days
[9] = H1299, 100 mg/kg (high dose) i.g. 30 days
[10] = A172, high dose (100 mg/kg in method) i.g. 30 days
[11] = A172, low dose (25 mg/kg in method) i.g. 30 days
[12] = A172, medium dose (50 mg/kg in method) i.g. 30 days

- mouse weight compared with the model group ([1]; mouse, in vivo): no significant changes
- mouse weight compared with the model group ([2]; mouse, in vivo): no significant changes
- mouse weight compared with the model group ([3]; mouse, in vivo): no significant changes
SMILES: CCC(=O)O[C@@H]1CC(=O)O[C@H](C)C/C=C/C=C/[C@H](O[C@H]2CC[C@H](N(C)C)[C@@H](C)O2)[C@H](C)C[C@H](CC=O)[C@H](O[C@@H]2O[C@H](C)[C@@H](O[C@H]3C[C@@](C)(O)[C@@H](OC(=O)CC(C)C)[C@H](C)O3)[C@H](N(C)C)[C@H]2O)[C@H]1OC [Isovaleryl spiramycin III, isovaleryl spiramycin III]
- Inhibition Rate (%) ([1]; 786-O nude mice, 25 mg/kg): 35.80%
- Relative Tumor Proliferation Rate (T/C) ([1]; 786-O nude mice, 25 mg/kg): 73.13%
- Relative Tumor Volume (RTV) ([1]; 786-O nude mice, 25 mg/kg): 18.90 ± 3.60
- Tumor Weight ([1]; 786-O nude mice, 25 mg/kg): 1.38 ± 0.42 g
- Tumor Volume (mm3) (d 1) ([1]; 786-O nude mice, 25 mg/kg): 106.47 ± 6.86 mm3
- Tumor Volume (mm3) (d30) ([1]; 786-O nude mice, 25 mg/kg): 1479.90 ± 458.97 mm3
- Inhibition Rate (%) ([1]; 786-O nude mice, 50 mg/kg): 52.14%
- Relative Tumor Proliferation Rate (T/C) ([1]; 786-O nude mice, 50 mg/kg): 51.33%
- Relative Tumor Volume (RTV) ([1]; 786-O nude mice, 50 mg/kg): 9.76 ± 1.44
- Tumor Weight ([1]; 786-O nude mice, 50 mg/kg): 1.02 ± 0.27 g
- Tumor Volume (mm3) (d 1) ([1]; 786-O nude mice, 50 mg/kg): 96.82 ± 8.52 mm3
- Tumor Volume (mm3) (d30) ([1]; 786-O nude mice, 50 mg/kg): 944.60 ± 112.60 mm3
- Inhibition Rate (%) ([1]; 786-O nude mice, 100 mg/kg): 62.49%
- Relative Tumor Proliferation Rate (T/C) ([1]; 786-O nude mice, 100 mg/kg): 34.20%
- Relative Tumor Volume (RTV) ([1]; 786-O nude mice, 100 mg/kg): 6.18 ± 0.61
- Tumor Weight ([1]; 786-O nude mice, 100 mg/kg): 0.80 ± 0.05 g
- Tumor Volume (mm3) (d 1) ([1]; 786-O nude mice, 100 mg/kg): 103.26 ± 9.71 mm3
- Tumor Volume (mm3) (d30) ([1]; 786-O nude mice, 100 mg/kg): 635.26 ± 78.22 mm3
- Relative Tumor Proliferation Rate (T/C) [1, 4]: 34.20%
- tumor growth inhibition rate [1, 4]: 62.49%
- Relative Tumor Proliferation Rate (T/C) [1, 5]: 73.13%
- tumor growth inhibition rate [1, 5]: 35.80%
- tumor volume and relative tumor volume compared with the model group ([1]; 786-O, low, medium and high doses, P<0.05): significantly lower
- Relative Tumor Proliferation Rate (T/C) [1, 6]: 51.33%
- tumor growth inhibition rate [1, 6]: 52.14%
- Body Weight (g) (d1) ([1]; mouse, in vivo, 25 mg/kg): 22.72 ± 0.78 g
- Body Weight (g) (d30) ([1]; mouse, in vivo, 25 mg/kg): 23.85 ± 0.89 g
- Body Weight (g) (d1) ([1]; mouse, in vivo, 50 mg/kg): 21.43 ± 1.08 g
- Body Weight (g) (d30) ([1]; mouse, in vivo, 50 mg/kg): 22.33 ± 1.09 g
- Body Weight (g) (d1) ([1]; mouse, in vivo, 100 mg/kg): 22.28 ± 1.72 g
- Body Weight (g) (d30) ([1]; mouse, in vivo, 100 mg/kg): 23.43 ± 1.69 g
- Inhibition Rate (tumor growth inhibition rate) [2, 7]: 13.11%
- Relative Tumor Proliferation Rate (T/C) [2, 7]: 89.88%
- Relative Tumor Volume (RTV) [2, 7]: 11.52 ± 2.51
- Tumor Volume (d 1) [2, 7]: 137.58 ± 14.95 mm3
- Tumor Volume (d 30) [2, 7]: 1565.97 ± 277.97 mm3
- Tumor Weight [2, 7]: 1.51 ± 0.30 g
- Inhibition Rate (tumor growth inhibition rate) [2, 8]: 49.38%
- Relative Tumor Proliferation Rate (T/C) [2, 8]: 48.11%
- Relative Tumor Volume (RTV) [2, 8]: 6.17 ± 2.64
- Tumor Volume (d 1) [2, 8]: 137.82 ± 17.12 mm3
- Tumor Volume (d 30) [2, 8]: 816.87 ± 299.03 mm3
- Tumor Weight [2, 8]: 0.88 ± 0.20 g
- Inhibition Rate (tumor growth inhibition rate) [2, 9]: 62.78%
- Relative Tumor Proliferation Rate (T/C) [2, 9]: 32.43%
- Relative Tumor Volume (RTV) [2, 9]: 4.16 ± 1.90
- Tumor Volume (d 1) [2, 9]: 137.09 ± 12.95 mm3
- Tumor Volume (d 30) [2, 9]: 557.82 ± 209.73 mm3
- Tumor Weight [2, 9]: 0.65 ± 0.17 g
- tumor volume and relative tumor volume compared with the model group ([2]; H1299, low, medium and high doses, P<0.05): significantly lower
- Relative Tumor Proliferation Rate (T/C) [3, 10]: 40.08%
- tumor growth inhibition rate [3, 10]: 59.19%
- Relative Tumor Proliferation Rate (T/C) [3, 11]: 66.45%
- tumor growth inhibition rate [3, 11]: 15.35%
- tumor volume and relative tumor volume compared with the model group ([3]; A172, low, medium and high doses, P<0.05): significantly lower
- Relative Tumor Proliferation Rate (T/C) [3, 12]: 52.89%
- tumor growth inhibition rate [3, 12]: 32.54%
- Inhibition Rate (%) ([3]; A172 nude mice, 12.5 mg/kg): 15.35%
- Relative Tumor Proliferation Rate (T/C) ([3]; A172 nude mice, 12.5 mg/kg): 66.45%
- Relative Tumor Volume (RTV) ([3]; A172 nude mice, 12.5 mg/kg): 13.47 ± 1.67
- Tumor Weight ([3]; A172 nude mice, 12.5 mg/kg): 1.18 ± 0.11 g
- Tumor Volume (mm3) (d 1) ([3]; A172 nude mice, 12.5 mg/kg): 121.75 ± 9.98 mm3
- Tumor Volume (mm3) (d30) ([3]; A172 nude mice, 12.5 mg/kg): 1305.51 ± 212.02 mm3
- Inhibition Rate (%) ([3]; A172 nude mice, 25 mg/kg): 32.54%
- Relative Tumor Proliferation Rate (T/C) ([3]; A172 nude mice, 25 mg/kg): 52.89%
- Relative Tumor Volume (RTV) ([3]; A172 nude mice, 25 mg/kg): 12.63 ± 1.27
- Tumor Weight ([3]; A172 nude mice, 25 mg/kg): 0.94 ± 0.12 g
- Tumor Volume (mm3) (d 1) ([3]; A172 nude mice, 25 mg/kg): 118.81 ± 8.97 mm3
- Tumor Volume (mm3) (d30) ([3]; A172 nude mice, 25 mg/kg): 1047.77 ± 165.77 mm3
- Inhibition Rate (%) ([3]; A172 nude mice, 50 mg/kg): 59.19%
- Relative Tumor Proliferation Rate (T/C) ([3]; A172 nude mice, 50 mg/kg): 40.08%
- Relative Tumor Volume (RTV) ([3]; A172 nude mice, 50 mg/kg): 10.96 ± 0.82
- Tumor Weight ([3]; A172 nude mice, 50 mg/kg): 0.57 ± 0.05 g
- Tumor Volume (mm3) (d 1) ([3]; A172 nude mice, 50 mg/kg): 118.44 ± 6.21 mm3
- Tumor Volume (mm3) (d30) ([3]; A172 nude mice, 50 mg/kg): 795.73 ± 174.84 mm3
- Body Weight (g) (d1) ([3]; mouse, in vivo, 12.5 mg/kg): 21.54 ± 0.36 g
- Body Weight (g) (d30) ([3]; mouse, in vivo, 12.5 mg/kg): 20.64 ± 0.54 g
- Body Weight (g) (d1) ([3]; mouse, in vivo, 25 mg/kg): 20.98 ± 0.47 g
- Body Weight (g) (d30) ([3]; mouse, in vivo, 25 mg/kg): 21.54 ± 0.72 g
- Body Weight (g) (d1) ([3]; mouse, in vivo, 50 mg/kg): 21.59 ± 0.32 g
- Body Weight (g) (d30) ([3]; mouse, in vivo, 50 mg/kg): 20.67 ± 0.56 g

Reference: US20200163984A1, “USE OF ISOVALERYL SPIRAMYCIN I, II AND/OR III IN MANUFACTURING MEDICAMENT FOR TREATING AND/OR PREVENTING TUMOR, AND MEDICAMENT” (SHENYANG FUYANG PHARMACEUTICAL TECHNOLOGY CO., LTD., priority 2017, published 2020)
